Laboratory results: patent US6355799B1, “Substituted benzene compounds, process for their preparation, and herbicidal and defoliant compositions containing them” (ISK Americas Incorporated, priority 1997, dated 2002)

Key:
Type in all cases: in vivo
[1] = tested on: redroot pigweed (Amaranthus retroflexus, AMARE); assay: Pre-emerge test, greenhouse herbicide activity screening; details: rating scale 0-100, 14 days after application
Summary of the method: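 Plants grown in 10 cm pots of sandy loam mix received acetone-dissolved compounds through a moving flat-fan nozzle. Doses ranged from 15 to 1000 g ai/ha. Pre-emerge pots were seeded one day earlier, post-emerge pots 8–21 days earlier. Fourteen days on, each pot was graded 0–100 for damage.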

[2] = tested on: barnyardgrass (Echinochloa crus-galli, ECHCG); assay: Post-emerge test, greenhouse herbicide activity screening; details: rating scale 0-100 (0 no damage, 100 complete death), 14 days after application
Summary of the method: (§1)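 Compounds in acetone were track-sprayed at 187 l/ha, 15–1000 g ai/ha, onto sandy loam pots. Pre-emerge seeds were sown one day before spraying, with surface watering afterwards. Post-emerge plants were at the 2–3 leaf stage and sprayed with 0.25% v/v non-ionic surfactant. Injury was rated 0–100 at 14 days.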

[3] = tested on: sicklepod (Cassia obtusifolia, CASOB); assay: as above; details: rating scale 0-100 (0 no damage, 100 complete death), 14 days after application
Summary of the method: as §1

[4] = tested on: common ragweed (Ambrosia artemisizfolia L., AMBEL); assay: as above; details: rating scale 0-100 (0 no damage, 100 complete death), 14 days after application
Summary of the method: as §1

[5] = tested on: velvetleaf (Abutilon theophrasti, ABUTH); assay: as above; details: rating scale 0-100 (0 no damage, 100 complete death), 14 days after application
Summary of the method: as §1

[6] = tested on: ivyleaf morningglory (Ipomoea hederacea, IPOHE); assay: as above; details: rating scale 0-100 (0 no damage, 100 complete death), 14 days after application
Summary of the method: as §1

[7] = tested on: large crabgrass (Digitaria sanguinalis, DIGSA); assay: as above; details: rating scale 0-100 (0 no damage, 100 complete death), 14 days after application
Summary of the method: as §1

[8] = tested on: lambsquarters (Chenopodium album, CHEAL); assay: as above; details: rating scale 0-100 (0 no damage, 100 complete death), 14 days after application
Summary of the method: as §1

[9] = tested on: johnsongrass (Sorghum halepense, SORHA); assay: as above; details: rating scale 0-100 (0 no damage, 100 complete death), 14 days after application
Summary of the method: as §1

[10] = tested on: green foxtail (Setaria viridis, SETVI); assay: as above; details: rating scale 0-100 (0 no damage, 100 complete death), 14 days after application
Summary of the method: as §1

[11] = tested on: redroot pigweed (Amaranthus retroflexus, AMARE); assay: as above; details: rating scale 0-100 (0 no damage, 100 complete death), 14 days after application
Summary of the method: as §1

[12] = tested on: upland rice (Oryza sp., var. Tebonnet, RICE); assay: Pre-emerge test, crop safety; details: rating scale 0-100, 14 days after application
Summary of the method: (§2)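 Sandy loam pots; pre-emerge: sown 1 d pre-spray, surface-watered after, then bottom-watered. Post-emerge: sown 8–21 d before, 2–3 leaf stage, + 0.25% v/v NIS, bottom-watered. Acetone, 187 l/ha track spray, 15–1000 g ai/ha. 0–100 injury score, day 14.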

[13] = tested on: field corn (Zea mays L., var. Dekalb 535, CORN); assay: Pre-emerge test, crop safety; details: rating scale 0-100, 14 days after application
Summary of the method: as §2

[14] = tested on: upland rice (Oryza sp., var. Tebonnet, RICE); assay: Post-emerge test, crop safety; details: rating scale 0-100 (0 no damage, 100 complete death), 14 days after application
Summary of the method: (§3)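 Compounds in acetone were track-sprayed at 15-1000 g ai/ha (187 l/ha) on sandy loam pots: pre-emerge one day after seeding, post-emerge at 2-3 leaf stage with 0.25% v/v non-ionic surfactant. Phytotoxicity was rated 14 days later on a 0 (no damage) to 100 (complete death) scale.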

[15] = tested on: field corn (Zea mays L., var. Dekalb 535, CORN); assay: Post-emerge test, crop safety; details: rating scale 0-100 (0 no damage, 100 complete death), 14 days after application
Summary of the method: as §3

[16] = tested on: barnyardgrass (Echinochloa crus-galli, ECHCG); assay: Pre-emerge test, greenhouse herbicide activity screening; details: rating scale 0-100, 14 days after application
Summary of the method: as §3

[17] = tested on: sicklepod (Cassia obtusifolia, CASOB); assay: as above; details: rating scale 0-100, 14 days after application
Summary of the method: as §3

[18] = tested on: velvetleaf (Abutilon theophrasti, ABUTH); assay: as above; details: rating scale 0-100, 14 days after application
Summary of the method: as §3

[19] = tested on: ivyleaf morningglory (Ipomoea hederacea, IPOHE); assay: as above; details: rating scale 0-100, 14 days after application
Summary of the method: as §3

[20] = tested on: large crabgrass (Digitaria sanguinalis, DIGSA); assay: as above; details: rating scale 0-100, 14 days after application
Summary of the method: as §3

[21] = tested on: lambsquarters (Chenopodium album, CHEAL); assay: as above; details: rating scale 0-100, 14 days after application
Summary of the method: as §3

[22] = tested on: johnsongrass (Sorghum halepense, SORHA); assay: as above; details: rating scale 0-100, 14 days after application
Summary of the method: as §3

[23] = tested on: green foxtail (Setaria viridis, SETVI); assay: as above; details: rating scale 0-100, 14 days after application
Summary of the method: as §3

COc1c(Cl)cc(F)c(-n2c(=O)cc(C(F)(F)F)n(C)c2=O)c1CC(Cl)C(=O)OCC(F)(F)C(F)(F)C(F)(F)F (single isomer, unassigned) [14-24]
Pre-emerge herbicidal activity, phytotoxicity rating AMARE ([1]; 63 g ai/ha): 50
Pre-emerge herbicidal activity, phytotoxicity rating AMARE ([1]; 250 g ai/ha): 100
Post-emerge Herbicidal Activity, phytotoxicity rating ECHCG ([2]; Rate 63 g ai/ha): 100
Post-emerge Herbicidal Activity, phytotoxicity rating ECHCG ([2]; Rate 250 g ai/ha): 100
Post-emerge Herbicidal Activity, phytotoxicity rating CASOB ([3]; Rate 63 g ai/ha): 0
Post-emerge Herbicidal Activity, phytotoxicity rating CASOB ([3]; Rate 250 g ai/ha): 0
Post-emerge Herbicidal Activity, phytotoxicity rating AMBEL ([4]; Rate 63 g ai/ha): 50
Post-emerge Herbicidal Activity, phytotoxicity rating AMBEL ([4]; Rate 250 g ai/ha): 50
Post-emerge Herbicidal Activity, phytotoxicity rating ABUTH ([5]; Rate 63 g ai/ha): 70
Post-emerge Herbicidal Activity, phytotoxicity rating ABUTH ([5]; Rate 250 g ai/ha): 100
Post-emerge Herbicidal Activity, phytotoxicity rating IPOHE ([6]; Rate 63 g ai/ha): 20
Post-emerge Herbicidal Activity, phytotoxicity rating IPOHE ([6]; Rate 250 g ai/ha): 40
Post-emerge Herbicidal Activity, phytotoxicity rating DIGSA ([7]; Rate 63 g ai/ha): 95
Post-emerge Herbicidal Activity, phytotoxicity rating DIGSA ([7]; Rate 250 g ai/ha): 100
Post-emerge Herbicidal Activity, phytotoxicity rating CHEAL ([8]; Rate 63 g ai/ha): 80
Post-emerge Herbicidal Activity, phytotoxicity rating CHEAL ([8]; Rate 250 g ai/ha): 90
Post-emerge Herbicidal Activity, phytotoxicity rating SORHA ([9]; Rate 63 g ai/ha): 0
Post-emerge Herbicidal Activity, phytotoxicity rating SORHA ([9]; Rate 250 g ai/ha): 50
Post-emerge Herbicidal Activity, phytotoxicity rating SETVI ([10]; Rate 63 g ai/ha): 0
Post-emerge Herbicidal Activity, phytotoxicity rating SETVI ([10]; Rate 250 g ai/ha): 50
Post-emerge Herbicidal Activity, phytotoxicity rating AMARE ([11]; Rate 63 g ai/ha): 40
Post-emerge Herbicidal Activity, phytotoxicity rating AMARE ([11]; Rate 250 g ai/ha): 90
Pre-emerge phytotoxicity rating, crop damage RICE ([12]; 63 g ai/ha): 0
Pre-emerge phytotoxicity rating, crop damage RICE ([12]; 250 g ai/ha): 20
Pre-emerge phytotoxicity rating, crop damage CORN ([13]; 63 g ai/ha): 0
Pre-emerge phytotoxicity rating, crop damage CORN ([13]; 250 g ai/ha): 0
Post-emerge phytotoxicity rating RICE (crop damage) ([14]; Rate 63 g ai/ha): 10
Post-emerge phytotoxicity rating RICE (crop damage) ([14]; Rate 250 g ai/ha): 50
Post-emerge phytotoxicity rating CORN (crop damage) ([15]; Rate 63 g ai/ha): 10
Post-emerge phytotoxicity rating CORN (crop damage) ([15]; Rate 250 g ai/ha): 20
Pre-emerge herbicidal activity, phytotoxicity rating ECHCG ([16]; 63 g ai/ha): 0
Pre-emerge herbicidal activity, phytotoxicity rating ECHCG ([16]; 250 g ai/ha): 0
Pre-emerge herbicidal activity, phytotoxicity rating CASOB ([17]; 63 g ai/ha): 0
Pre-emerge herbicidal activity, phytotoxicity rating CASOB ([17]; 250 g ai/ha): 30
Pre-emerge herbicidal activity, phytotoxicity rating ABUTH ([18]; 63 g ai/ha): 0
Pre-emerge herbicidal activity, phytotoxicity rating ABUTH ([18]; 250 g ai/ha): 80
Pre-emerge herbicidal activity, phytotoxicity rating IPOHE ([19]; 63 g ai/ha): 0
Pre-emerge herbicidal activity, phytotoxicity rating IPOHE ([19]; 250 g ai/ha): 0
Pre-emerge herbicidal activity, phytotoxicity rating DIGSA ([20]; 63 g ai/ha): 20
Pre-emerge herbicidal activity, phytotoxicity rating DIGSA ([20]; 250 g ai/ha): 80
Pre-emerge herbicidal activity, phytotoxicity rating CHEAL ([21]; 63 g ai/ha): 0
Pre-emerge herbicidal activity, phytotoxicity rating CHEAL ([21]; 250 g ai/ha): 50
Pre-emerge herbicidal activity, phytotoxicity rating SORHA ([22]; 63 g ai/ha): 0
Pre-emerge herbicidal activity, phytotoxicity rating SORHA ([22]; 250 g ai/ha): 0
Pre-emerge herbicidal activity, phytotoxicity rating SETVI ([23]; 63 g ai/ha): 0
Pre-emerge herbicidal activity, phytotoxicity rating SETVI ([23]; 250 g ai/ha): 0
